Values quoted from earlier work, collected in US20090298951A1, “Nontoxic Biocidal Composition And Method Thereof” (priority 2008, published 2009).

Conditions: 20° C.

C/C=C/C=C/C(=O)[O-].[K+] [potassium sorbate, potassium (E,E)-hexa-2,4-dienoate]
soluble in water: 58.2%
